Assay results reported in BindingDB's records for doi:10.1021/jm034188j (Morphochem, 2004).

Target: Methionine aminopeptidase (Staphylococcus aureus (strain MW2), UniProt P0A079)
Experiment: MetAP Inhibition Assay
Settings: pH 7.5; 22 °C
Description: The MetAP reaction with Co2+ as a cofactor is coupled to a prolyl aminopeptidase (ProAP) using Met-Pro-p-nitroanilide as substrate. MetAP-catalyzed cleavage of the N-terminal methionine produces prolyl-p-nitroanilide, which is rapidly hydrolyzed by ProAP to release a chromogenic product. This allows the MetAP reaction to be continuously monitored at 405 nm on a UVVIS spectrophotometer. The initial rate was calculated from the early part of the reaction progress curve (<5 min). Activity assays were performed in triplicate using eight to 16 concentrations of substrate or inhibitor.

Methionine aminopeptidase, sequence (P0A079 whole entry): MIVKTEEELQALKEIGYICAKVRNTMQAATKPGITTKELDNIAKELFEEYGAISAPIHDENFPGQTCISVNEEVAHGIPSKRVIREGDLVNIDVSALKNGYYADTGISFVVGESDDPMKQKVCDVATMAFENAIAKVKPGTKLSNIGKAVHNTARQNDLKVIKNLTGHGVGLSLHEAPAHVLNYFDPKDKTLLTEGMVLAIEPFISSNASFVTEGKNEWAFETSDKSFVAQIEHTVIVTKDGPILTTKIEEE

| Compound | IC50 |
| --- | --- |
| CSCC[C@H](N)C(=O)c1nccs1 [(2S)-2-amino-4-(methylsulfanyl)-1-(1,3-thiazol-2-yl)butan-1-one] | 19 µM |
| CSCC[C@H](N)C(=O)c1ccccn1 [(2S)-2-amino-4-(methylsulfanyl)-1-(pyridin-2-yl)butan-1-one] | 16 µM |
